For series [1], the target named is Tyrosine-protein kinase BTK (Homo sapiens, UniProt Q06187). Kind of series: Inhibition of BTK (unknown origin) preincubated for 10 mins followed by kinase substrate and ATP addition and measured for 20 mins by mobility shift assay.
The target in series [2] is T1, Tyrosine-protein kinase JAK3 (Homo sapiens, UniProt P52333).
T1 sequence (P52333 whole entry): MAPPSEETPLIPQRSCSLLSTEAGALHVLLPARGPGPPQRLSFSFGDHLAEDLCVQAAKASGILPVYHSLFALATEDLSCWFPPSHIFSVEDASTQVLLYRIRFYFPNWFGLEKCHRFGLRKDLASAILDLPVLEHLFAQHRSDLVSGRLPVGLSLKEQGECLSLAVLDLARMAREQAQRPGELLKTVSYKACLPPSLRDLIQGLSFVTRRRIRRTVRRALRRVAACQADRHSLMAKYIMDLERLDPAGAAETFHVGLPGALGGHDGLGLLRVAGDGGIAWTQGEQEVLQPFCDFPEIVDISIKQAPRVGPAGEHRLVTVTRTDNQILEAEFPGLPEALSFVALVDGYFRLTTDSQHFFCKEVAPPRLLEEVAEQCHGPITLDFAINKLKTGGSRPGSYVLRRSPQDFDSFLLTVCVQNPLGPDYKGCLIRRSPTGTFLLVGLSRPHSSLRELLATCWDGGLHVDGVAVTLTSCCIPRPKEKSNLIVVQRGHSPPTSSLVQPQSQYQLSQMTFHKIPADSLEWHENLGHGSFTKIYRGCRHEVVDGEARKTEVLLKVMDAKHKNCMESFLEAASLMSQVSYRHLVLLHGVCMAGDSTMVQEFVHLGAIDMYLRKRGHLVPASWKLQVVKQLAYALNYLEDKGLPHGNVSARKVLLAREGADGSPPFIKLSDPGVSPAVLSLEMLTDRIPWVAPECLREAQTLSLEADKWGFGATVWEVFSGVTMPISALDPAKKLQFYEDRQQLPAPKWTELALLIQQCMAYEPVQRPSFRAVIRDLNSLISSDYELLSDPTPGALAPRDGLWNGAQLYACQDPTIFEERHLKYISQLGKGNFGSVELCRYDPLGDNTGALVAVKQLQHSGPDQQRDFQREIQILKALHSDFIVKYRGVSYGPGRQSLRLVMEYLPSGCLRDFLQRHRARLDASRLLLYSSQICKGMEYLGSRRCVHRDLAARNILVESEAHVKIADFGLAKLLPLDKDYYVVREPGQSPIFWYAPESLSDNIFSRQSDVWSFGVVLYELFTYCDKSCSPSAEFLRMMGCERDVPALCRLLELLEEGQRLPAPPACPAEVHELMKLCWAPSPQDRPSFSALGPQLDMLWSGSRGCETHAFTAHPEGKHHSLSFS
Kind of series: Inhibition of JAK3 (unknown origin) preincubated for 10 mins followed by kinase substrate and ATP addition and measured for 30 mins by mobility shift assay.

For a further series, the system named is BaF3. Kind of series: Antiproliferative activity against mouse BaF3 cells expressing JAK3 mutant assessed as inhibition of cell growth incubated for 72 hrs by Cell Titer-Glo assay. The series is classed as functional, cell-based. To be noted: BaF3, 72 h.
The nature of series [3]: Acute toxicity in po dosed ICR mouse assessed as minimum lethal dose measured for 7 days. It is filed as organism-based. To be noted: in vivo, 168 h, time 7 day.
For the next series, the system named is Daudi. Kind of series: Antiproliferative activity against human Daudi cells assessed as inhibition of cell growth incubated for 72 hrs by Cell Titer-Glo assay. The series is classed as functional, cell-based. For orientation: Cellular ATP, detected with luciferase, serves as a proxy for viable cell number.

Molecules are shown by their SMILES.

The source of these data is ChEMBL document CHEMBL5329199, “Discovery of novel dual Bruton's tyrosine kinase (BTK) and Janus kinase 3 (JAK3) inhibitors as a promising strategy for rheumatoid arthritis” (Bioorg Med Chem, 2023).

Chain of Tyrosine-protein kinase BTK (Q06187 whole entry): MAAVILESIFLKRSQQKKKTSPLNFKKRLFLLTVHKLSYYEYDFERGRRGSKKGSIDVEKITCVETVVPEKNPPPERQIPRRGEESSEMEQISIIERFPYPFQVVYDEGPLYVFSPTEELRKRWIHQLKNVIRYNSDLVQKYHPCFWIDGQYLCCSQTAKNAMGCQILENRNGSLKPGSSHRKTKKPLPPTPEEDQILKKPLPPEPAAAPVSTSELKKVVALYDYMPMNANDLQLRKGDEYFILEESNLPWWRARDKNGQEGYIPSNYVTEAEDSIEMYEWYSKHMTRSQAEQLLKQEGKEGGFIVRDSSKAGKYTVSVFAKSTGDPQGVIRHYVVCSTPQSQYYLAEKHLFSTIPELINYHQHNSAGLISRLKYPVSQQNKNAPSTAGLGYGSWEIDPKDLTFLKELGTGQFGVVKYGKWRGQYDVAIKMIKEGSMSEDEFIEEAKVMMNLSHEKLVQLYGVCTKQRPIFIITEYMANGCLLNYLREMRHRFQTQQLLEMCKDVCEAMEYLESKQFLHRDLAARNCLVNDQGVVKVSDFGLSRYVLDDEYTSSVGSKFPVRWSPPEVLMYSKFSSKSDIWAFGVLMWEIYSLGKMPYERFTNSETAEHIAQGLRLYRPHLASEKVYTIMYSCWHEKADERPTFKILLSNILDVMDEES

Broadly, the IC50 is the concentration at which inhibition is half-maximal. On to `C=CC(=O)N1CCC[C@@H](n2nc(-c3ccc(NC(=O)c4ccc(C(C)(C)C)cc4)c4c3OCO4)c3c(N)ncnc32)C1`, for which the figures for the IC50 in series [1] and in series [2] were 2.7 nM and 37 nM, respectively.
In the case of `C=CC(=O)N1CCC[C@@H](n2nc(-c3ccc(NC(=O)c4ccccc4)c4c3OCO4)c3c(N)ncnc32)C1`, the results for the IC50 in series [1] and in series [2] were 1.3 nM and 73 nM, respectively.
Taken in the same sequence, the figures for `C=CC(=O)N1CCC[C@@H](n2nc(-c3ccc(NC(=O)c4cccs4)c4c3OCO4)c3c(N)ncnc32)C1` were 1.7 nM and 61 nM.
On the same counts, the results for `C=CC(=O)N1CCC[C@@H](n2nc(-c3ccc(NC(=O)c4cccc(Cl)c4)c4c3OCO4)c3c(N)ncnc32)C1` are 1.8 nM and 44 nM.
Taken in the same sequence, the figures for `C=CC(=O)N1CCC[C@@H](n2nc(-c3ccc(NC(=O)c4ccccn4)c4c3OCO4)c3c(N)ncnc32)C1` were 1.4 nM and 70 nM.
As to `C=CC(=O)N1CCC[C@@H](n2nc(-c3ccc(NC(=O)c4ccccc4Cl)c4c3OCO4)c3c(N)ncnc32)C1`, the IC50 is 2 nM in series [1] and 106 nM in series [2].
As for `C=CC(=O)N1CCC[C@@H](n2nc(-c3ccc(NC(=O)c4sc5ccccc5c4Cl)c4c3OCO4)c3c(N)ncnc32)C1`, the IC50 in series [1] amounted to 2.4 nM; in series [2] it was 30 nM.
For `CCC(=O)N1CCC[C@@H](n2nc(-c3ccc(NC(=O)c4ccccc4)c4c3OCO4)c3c(N)ncnc32)C1`, the IC50 in series [1] was 46 nM; in series [2], more than 10000 nM.
On the same counts, the results for `C=CC(=O)N1CCC[C@@H](n2nc(-c3ccc(NC(=O)c4cccc5c4CCCC5)c4c3OCO4)c3c(N)ncnc32)C1` are 1.9 nM and 35 nM.
Taken in the same sequence, the figures for `N#CCC(=O)N1CCC[C@@H](n2nc(-c3ccc(NC(=O)c4ccccc4)c4c3OCO4)c3c(N)ncnc32)C1` were 60 nM and more than 10000 nM.
Taken in the same sequence, the figures for `C=CC(=O)N1CCC[C@@H]1Cn1nc(-c2ccc(NC(=O)c3ccc(N(C)C)cc3)c3c2OCO3)c2c(N)ncnc21` were 6 nM and 645 nM.
Consider `C=CC(=O)N1CCC[C@@H](n2nc(-c3ccc(NC(=O)c4ccc(N(CC)CC)cc4)c4c3OCO4)c3c(N)ncnc32)C1`, for which the figures for the IC50 in series [1] and in series [2] were 2.2 nM and 27 nM, respectively.
Taken in the same sequence, the figures for `C=CC(=O)N1CCC[C@@H](n2nc(-c3ccc(NC(=O)c4ccc(OC)cc4)c4c3OCO4)c3c(N)ncnc32)C1` were 1.5 nM and 44 nM.
Taken in the same sequence, the figures for `C=CC(=O)N1CCC[C@@H](n2nc(-c3ccc(NC(=O)c4cccc(N(C)C)c4)c4c3OCO4)c3c(N)ncnc32)C1` were 1.02 nM and 97 nM.
Taken in the same sequence, the figures for `C=CC(=O)N1CCC[C@@H](n2nc(-c3ccc(NC(=O)c4ccc(F)cc4)c4c3OCO4)c3c(N)ncnc32)C1` were 0.9 nM and 176 nM.
As for `C=CC(=O)N1CCC[C@@H](n2nc(-c3ccc(NC(=O)C45CC6CC(CC(C6)C4)C5)c4c3OCO4)c3c(N)ncnc32)C1`, the results for the IC50 in series [1] and in series [2] were 5.94 nM and 500 nM, respectively.
On the same counts, the results for `C=CC(=O)N1CCC[C@@H](n2nc(-c3ccc(NC(=O)C45CCC(CC4)C5)c4c3OCO4)c3c(N)ncnc32)C1` are 1.48 nM and 500 nM.
On the same counts, the results for `C=CC(=O)N1CCC[C@@H](n2nc(-c3ccc(NC(=O)c4cc5ccccc5s4)c4c3OCO4)c3c(N)ncnc32)C1` are 0.42 nM and 19 nM.
Taken in the same sequence, the figures for `C=CC(=O)N1CCC[C@@H](n2nc(-c3ccc(NC(=O)c4ccco4)c4c3OCO4)c3c(N)ncnc32)C1` were 1.48 nM and 192 nM.
For `C=CC(=O)N1CCC[C@@H](n2nc(-c3ccc(NC(=O)c4ccc[nH]4)c4c3OCO4)c3c(N)ncnc32)C1`, the IC50 turned out to be 2.4 nM in series [1] and 100 nM in series [2].
On the same counts, the results for `CC#CC(=O)N1CCC[C@@H](n2nc(-c3ccc(NC(=O)c4ccccc4)c4c3OCO4)c3c(N)ncnc32)C1` are 24 nM and more than 10000 nM.
Taken in the same sequence, the figures for `C=CC(=O)N1CCC[C@@H](n2nc(-c3ccc(NC(=O)C4CCN(C)CC4)c4c3OCO4)c3c(N)ncnc32)C1` were 585 nM and more than 10000 nM.
As to `C=CC(=O)N1CCC[C@@H](n2nc(-c3ccc(NC(=O)c4ccc(C#N)cc4)c4c3OCO4)c3c(N)ncnc32)C1`, the IC50 amounted to 2.9 nM in series [1] and 372 nM in series [2].
As to `C=CC(=O)N1CCC[C@@H](n2nc(-c3ccc(NC(=O)c4ccc(Cl)cc4)c4c3OCO4)c3c(N)ncnc32)C1`, the IC50 in series [1] was determined as 1.3 nM; in series [2], 44 nM.
As to `C=CC(=O)N1CCC[C@@H](n2nc(-c3ccc(NC(=O)c4ccc(OC)c(OC)c4)c4c3OCO4)c3c(N)ncnc32)C1`, the IC50 in series [1] turned out to be 3.4 nM; in series [2] it was 147 nM.
In the case of `N#C/C(=C\C1CC1)C(=O)N1CCC[C@@H](n2nc(-c3ccc(NC(=O)c4ccccc4)c4c3OCO4)c3c(N)ncnc32)C1`, the results for the IC50 in series [1] and in series [2] were 3 nM and more than 10000 nM, respectively.
On the same counts, the results for `C=CC(=O)N1CCC[C@@H](n2nc(-c3ccc(NC(=O)c4ccc(-c5ccccc5)cc4)c4c3OCO4)c3c(N)ncnc32)C1` are 2.1 nM and 120 nM.
Taken in the same sequence, the figures for `C=CC(=O)Nc1cccc(Cn2nc(-c3ccc(NC(=O)c4ccccc4)c4c3OCO4)c3c(N)ncnc32)c1` were 29 nM and more than 10000 nM.
Consider `C=CC(=O)N1CCC[C@@H](n2nc(-c3ccc(NC(=O)c4ccc(C(F)(F)F)cc4)c4c3OCO4)c3c(N)ncnc32)C1`, for which the 50% inhibitory concentration (IC50) in series [1] came out at 1.8 nM; in series [2] it was 51 nM.
Taken in the same sequence, the figures for `C=CC(=O)N1CCC[C@@H](n2nc(-c3ccc(NC(=O)c4ccccc4N(C)C)c4c3OCO4)c3c(N)ncnc32)C1` were 3.49 nM and 122 nM.
In the case of `C=CC(=O)N1CCC[C@@H](n2nc(-c3ccc(Oc4ccccc4)cc3)c3c(N)ncnc32)C1` [IBRUTINIB], the results for the IC50 with BaF3 and in the series on Daudi were 1420 nM and 656 nM, respectively. The MLD in series [3] amounted to 750 mg/kg.
